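Grown in 96-well plates, cells were treated for 48 hours with each compound at five concentrations. Insufficient inhibition: endpoint recorded as highest concentration tested. At the GI50, growth is halved. TGI is the concentration that stops growth completely.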
Legend:
Experiment in all cases: NCI-60 cell line screen, 48 h
[1] = test system: DU-145 prostate
[2] = test system: HOP-92 NSCLC
[3] = test system: CAKI-1 renal
[4] = test system: PC-3 prostate
[5] = test system: UACC-257 melanoma
[6] = test system: A498 renal
[7] = test system: IGROV1 ovarian
[8] = test system: UO-31 renal
[9] = test system: HCT-116 colon
[10] = test system: OVCAR-3 ovarian
[11] = test system: SK-MEL-2 melanoma
[12] = test system: SK-OV-3 ovarian
[13] = test system: UACC-62 melanoma
[14] = test system: SK-MEL-5 melanoma
[15] = test system: SW-620 colon
[16] = test system: KM12 colon
[17] = test system: M14 melanoma
[18] = test system: MCF7 breast
[19] = test system: 786-0 renal
[20] = test system: MOLT-4 leukemia
[21] = test system: ACHN renal
[22] = test system: OVCAR-8 ovarian
[23] = test system: RXF 393 renal
[24] = test system: HCT-15 colon
[25] = test system: SF-295 CNS
[26] = test system: NCI-H522 lung
[27] = test system: SK-MEL-28 melanoma
[28] = test system: MDA-MB-231 breast
[29] = test system: MDA-MB-435
[30] = test system: HT29 colon
[31] = test system: SNB-75 CNS
[32] = test system: EKVX NSCLC
[33] = test system: SNB-19 CNS
[34] = test system: HL-60(TB) leukemia
[35] = test system: HOP-62 NSCLC
[36] = test system: OVCAR-4 ovarian
[37] = test system: MALME-3M melanoma
[38] = test system: SN12C renal
[39] = test system: K-562 leukemia
[40] = test system: CCRF-CEM leukemia
[41] = test system: SR leukemia
[42] = test system: NCI-H23 lung
[43] = test system: BT-549 breast
[44] = test system: SF-268 CNS
[45] = test system: SF-539 CNS
[46] = test system: HS 578T breast
[47] = test system: U251 CNS
[48] = test system: RPMI-8226 leukemia
[49] = test system: COLO 205 colon
[50] = test system: OVCAR-5 ovarian
[51] = test system: HCC-2998 colon
[52] = test system: A549 NSCLC
[53] = test system: NCI-H460 lung
[54] = test system: TK-10 renal
[55] = test system: LOX IMVI melanoma
[56] = test system: NCI-H226 lung
[57] = test system: T-47D breast
[58] = test system: NCI/ADR-RES ovarian

Structure (SMILES): NS(=O)(=O)OC[C@H]1C[C@@H](Nc2ccnc3cc(-c4cccc(SC(F)(F)F)c4)nn23)[C@H](O)[C@@H]1O
- GI50 [1]: 0.029 µM
- TGI [1]: 0.19 µM
- GI50 [2]: 0.0308 µM
- TGI [2]: 0.0788 µM
- GI50 [3]: 0.181 µM
- TGI [3]: 0.477 µM
- GI50 [4]: 0.0378 µM
- TGI [4]: 0.367 µM
- GI50 [5]: 0.0278 µM
- TGI [5]: 0.108 µM
- GI50 [6]: 0.013 µM
- TGI [6]: 0.0262 µM
- GI50 [7]: 0.111 µM
- TGI [7]: 0.673 µM
- GI50 [8]: 0.208 µM
- TGI [8]: 0.369 µM
- GI50 [9]: 0.0159 µM
- TGI [9]: 0.0571 µM
- GI50 [10]: < 0.0166 µM
- TGI [10]: 0.034 µM
- GI50 [11]: 0.0316 µM
- TGI [11]: 0.118 µM
- GI50 [12]: 0.0271 µM
- TGI [12]: 0.0769 µM
- GI50 [13]: 0.0325 µM
- TGI [13]: 0.195 µM
- GI50 [14]: 0.0133 µM
- TGI [14]: 0.0278 µM
- GI50 [15]: 0.0422 µM
- TGI [15]: 1.37 µM
- GI50 [16]: 0.0991 µM
- TGI [16]: 0.368 µM
- GI50 [17]: 0.0429 µM
- TGI [17]: 0.278 µM
- GI50 [18]: 0.0214 µM
- TGI [18]: 0.173 µM
- GI50 [19]: 0.0472 µM
- TGI [19]: 0.19 µM
- GI50 [20]: 0.166 µM
- TGI [20]: 0.588 µM
- GI50 [21]: 0.176 µM
- TGI [21]: 0.36 µM
- GI50 [22]: 0.0216 µM
- TGI [22]: 0.0682 µM
- GI50 [23]: 0.0199 µM
- TGI [23]: 0.0436 µM
- GI50 [24]: 0.139 µM
- TGI [24]: 0.449 µM
- GI50 [25]: 0.086 µM
- TGI [25]: 0.237 µM
- GI50 [26]: 0.0184 µM
- TGI [26]: 0.0363 µM
- GI50 [27]: 0.0189 µM
- TGI [27]: 0.065 µM
- GI50 [28]: 0.0195 µM
- TGI [28]: 0.0867 µM
- GI50 [29]: 0.035 µM
- TGI [29]: 0.144 µM
- GI50 [30]: 0.249 µM
- TGI [30]: 0.552 µM
- GI50 [31]: 0.0397 µM
- TGI [31]: 0.187 µM
- GI50 [32]: 0.028 µM
- TGI [32]: 0.104 µM
- GI50 [33]: 0.0301 µM
- TGI [33]: 0.0902 µM
- GI50 [34]: 0.0332 µM
- TGI [34]: 0.15 µM
- GI50 [35]: 0.0173 µM
- TGI [35]: 0.0489 µM
- GI50 [36]: 0.0274 µM
- TGI [36]: 0.11 µM
- GI50 [37]: 0.0275 µM
- TGI [37]: 0.0652 µM
- GI50 [38]: 0.0462 µM
- TGI [38]: 0.319 µM
- GI50 [39]: < 0.014 µM
- TGI [39]: 1.23 µM
- GI50 [40]: < 0.0181 µM
- TGI [40]: 13.2 µM
- GI50 [41]: 0.0316 µM
- TGI [41]: 1.05 µM
- GI50 [42]: 0.0338 µM
- TGI [42]: 0.13 µM
- GI50 [43]: 0.0193 µM
- TGI [43]: 0.0484 µM
- GI50 [44]: 0.0265 µM
- TGI [44]: 0.0711 µM
- GI50 [45]: 0.0143 µM
- TGI [45]: 0.037 µM
- GI50 [46]: 0.0351 µM
- TGI [46]: 1.95 µM
- GI50 [47]: 0.016 µM
- TGI [47]: 0.0339 µM
- GI50 [48]: 0.641 µM
- TGI [48]: 3 µM
- GI50 [49]: 0.0229 µM
- TGI [49]: 0.0525 µM
- GI50 [50]: 0.0578 µM
- TGI [50]: 2.83 µM
- GI50 [51]: 0.022 µM
- TGI [51]: 0.0442 µM
- GI50 [52]: 0.206 µM
- TGI [52]: 0.445 µM
- GI50 [53]: 0.259 µM
- TGI [53]: 0.679 µM
- GI50 [54]: 0.126 µM
- TGI [54]: 0.336 µM

Structure (SMILES): O=c1c2ccccc2sc2c(NCCCNCCO)nc3ccccc3c12
- GI50 [1]: 1.6 µM
- TGI [1]: 3.33 µM
- GI50 [2]: 0.922 µM
- TGI [2]: 5.67 µM
- GI50 [3]: 1.6 µM
- TGI [3]: 3.2 µM
- GI50 [4]: 1.49 µM
- TGI [4]: 2.98 µM
- GI50 [5]: 1.93 µM
- TGI [5]: 3.6 µM
- GI50 [7]: 1.35 µM
- TGI [7]: 3.17 µM
- GI50 [8]: 1.18 µM
- TGI [8]: 3 µM
- GI50 [9]: 1.3 µM
- TGI [9]: 2.6 µM
- GI50 [10]: 1.81 µM
- TGI [10]: 3.65 µM
- GI50 [11]: 1.87 µM
- TGI [11]: 3.62 µM
- GI50 [12]: 2.14 µM
- TGI [12]: 7.31 µM
- GI50 [13]: 1.89 µM
- TGI [13]: 3.85 µM
- GI50 [14]: 1.64 µM
- TGI [14]: 3.03 µM
- GI50 [15]: 1.31 µM
- TGI [15]: 2.74 µM
- GI50 [55]: 1.28 µM
- TGI [55]: 2.82 µM
- GI50 [56]: 1.41 µM
- TGI [56]: 2.95 µM
- GI50 [16]: 1.77 µM
- TGI [16]: 3.48 µM
- GI50 [17]: 1.71 µM
- TGI [17]: 3.33 µM
- GI50 [19]: 1.49 µM
- TGI [19]: 2.92 µM
- GI50 [20]: 1.26 µM
- TGI [20]: 3.32 µM
- GI50 [21]: 1.39 µM
- TGI [21]: 2.81 µM
- GI50 [22]: 1.97 µM
- TGI [22]: 4.46 µM
- GI50 [23]: 1.46 µM
- TGI [23]: 3.52 µM
- GI50 [24]: 1.57 µM
- TGI [24]: 3.52 µM
- GI50 [25]: 1.83 µM
- TGI [25]: 4.11 µM
- GI50 [26]: 1.82 µM
- TGI [26]: 3.57 µM
- GI50 [27]: 1.81 µM
- TGI [27]: 3.52 µM
- GI50 [28]: 1.13 µM
- TGI [28]: 2.63 µM
- GI50 [29]: 1.77 µM
- TGI [29]: 3.25 µM
- GI50 [30]: 1.51 µM
- TGI [30]: 2.97 µM
- GI50 [31]: 1.64 µM
- TGI [31]: 4.32 µM
- GI50 [57]: 1.99 µM
- TGI [57]: 4.38 µM
- GI50 [32]: 1.67 µM
- TGI [32]: 4.58 µM
- GI50 [33]: 2.02 µM
- TGI [33]: 5.13 µM
- GI50 [34]: 1.92 µM
- TGI [34]: 3.92 µM
- GI50 [35]: 1.34 µM
- TGI [35]: 2.82 µM
- GI50 [36]: 2.17 µM
- TGI [36]: 6.37 µM
- GI50 [37]: 1.58 µM
- TGI [37]: 3.3 µM
- GI50 [38]: 1.47 µM
- TGI [38]: 3.24 µM
- GI50 [58]: 1.86 µM
- TGI [58]: 4.56 µM
- GI50 [40]: 1.59 µM
- TGI [40]: 3.57 µM
- GI50 [41]: 1.6 µM
- TGI [41]: 4.55 µM
- GI50 [42]: 2.01 µM
- TGI [42]: 7.55 µM
- GI50 [43]: 2.81 µM
- TGI [43]: 11.1 µM
- GI50 [44]: 1.69 µM
- TGI [44]: 4.24 µM
- GI50 [45]: 1.65 µM
- TGI [45]: 3.23 µM
- GI50 [46]: 1.67 µM
- TGI [46]: 5.65 µM
- GI50 [47]: 1.76 µM
- TGI [47]: 3.57 µM
- GI50 [48]: 1.92 µM
- TGI [48]: 4.89 µM
- GI50 [49]: 1.47 µM
- TGI [49]: 3.23 µM
- GI50 [50]: 1.56 µM
- TGI [50]: 3.31 µM
- GI50 [51]: 1.72 µM
- TGI [51]: 3.64 µM
- GI50 [52]: 1.53 µM
- TGI [52]: 3.41 µM
- GI50 [53]: 0.605 µM
- TGI [53]: 2.01 µM
- GI50 [54]: 1.91 µM
- TGI [54]: 3.38 µM

Reference: PubChem BioAssay (NCI)
